# Test system: in vitro human saliva microcosm biofilm
# Assay: Determination of Lactic Acid Release (LAR) after Permanent Exposure Procedure (LDH-NAD-PMS-MTT enzyme assay)
# Assay type: cell-based
# Details: Indole 0.07 wt.% in MCM-1% sucrose, about 26 hours biofilm growth, 37 °C, vs untreated control TC0, negative number = release of lactic acid reduced
# Procedure: To determine the metabolic activity of the biofilm sample, the accumulation of lactic acid in the supernatant (1.0 ml PBS-solution with 5% sucrose per each biofilm sample disc) was measured by using the Lactic acid dehydrogenase (LDH)- Nicotinamide-adenine-dinucleotide (NAD)-Phenazine Methosulphate (PMS) - Thiazolyl blue tetrazolium bromide (MTT) - enzyme assay. To ensure that only freshly produced lactic acid is determined, the biofilm samples were washed four times with 1.0 ml PBS solution for 30 sec each. After 30 min the accumulated amount of lactic acid in the supernatant was measured by analyzing 50 µl of the supernatant. The lactic acid was quantified by the lactic acid specific enzyme assay described above. Known correlation between measured enzyme activity and amount of lactic acid was used to translate measured enzyme activity into the amount of lactic acid present in sample of the supernatant. In accordance to the validation of the in vitro human saliva microcosm biofilm model, a compound should lower the lactic acid release in permanent application of at least 40 or at least 50 % in comparison to the untreated biofilm control. […] Bovine sample disks of about 10 x 10 mm (+/- 2mm) were incubated in a 24 well plate containing 1.8 ml medium in an incubator at 37°C and 60 rpm circular movement. The treatment composition described below were added by pipetting and removed by a suction pump. • Day 1: Four-hours inoculation of bovine sample disks with saliva-mcm media (MCM = mucine containing medium plus 1 % sucrose) at 37 °C (without active substance). • Fresh medium (MCM-1% sucrose) containing the respective amounts of indole component as given in Table 2. This Treatment Composition was used for another 3-hour incubation. • Fresh medium (MCM-1% sucrose and Treatment Composition) for storage for about 14h at 37 °C. • Day 2: Fresh medium (MCM-1% sucrose and Treatment Composition) for 2-hour incubation. • Fresh medium (MCM-1% sucrose and Treatment Composition) for another 2-hour incubation. […]
row,SMILES,inhibition at 0.07 %
1,"COc1ccc2[nH]cc(CC(=O)O)c2c1 [TC2 - IA2, 5-Methoxy-3-Indoleacetic acid]",87.8%

# Same assay, conditions: Indole 0.073 wt.% in MCM-1% sucrose, about 26 hours biofilm growth, 37 °C, vs untreated control TC0, negative number = release of lactic acid reduced
row,SMILES,inhibition at 0.073 %
1,"O=C(O)CCc1c[nH]c2ccccc12 [TC1 - IA1, Indole-3-propionic acid]",95.3%

# Same assay, conditions: Indole 0.1 wt.% in MCM-1% sucrose, about 26 hours biofilm growth, 37 °C, vs untreated control TC0, negative number = release of lactic acid reduced
row,SMILES,inhibition at 0.1 %
1,"O=C(O)Cc1c[nH]c2ccccc12 [TC3 - IA3, Indole acetic acid]",78%

# Test system: lactic acid producing bacteria in an oral biofilm
# Assay: not given
# Details: qualitative statement; amino acids, as described in EP 18183601.6; cited from earlier work
row,SMILES,reducing the lactic-acid release of bacteria in a biofilm
1,N=C(N)NCCC[C@H](N)C(=O)O [arginine],not effective
2,N[C@@H](CC(=O)O)C(=O)O [aspartic acid],not effective
3,NC(=O)CC[C@H](N)C(=O)O [glutamine],not effective
4,NCC(=O)O [glycine],useful
5,N[C@@H](Cc1c[nH]cn1)C(=O)O [histidine],not effective
6,CC[C@H](C)[C@H](N)C(=O)O [isoleucine],useful
7,CC(C)C[C@H](N)C(=O)O [leucine],useful
8,NCCCC[C@H](N)C(=O)O [lysine],useful
9,CSCC[C@H](N)C(=O)O [methionine],useful
10,N[C@@H](Cc1ccccc1)C(=O)O [phenylalanine],useful
11,O=C(O)[C@@H]1CCCN1 [proline],not effective
12,N[C@@H](CO)C(=O)O [serine],useful
13,C[C@@H](O)[C@H](N)C(=O)O [threonine],useful
14,N[C@@H](Cc1c[nH]c2ccccc12)C(=O)O [tryptophan],useful
15,N[C@@H](Cc1ccc(O)cc1)C(=O)O [tyrosine],not effective
16,CC(C)[C@H](N)C(=O)O [valine],useful

# — patent EP3848017A1, “ORAL CARE COMPOSITION CONTAINING INDOLE COMPONENTS FOR TREATING CARIES” (3M Innovative Properties Company, priority 2020, dated 2021)
